Experimental data taken from the OligoGym collection.
Where “and” joins values, the source holds several entries; their conditions need not be identical. Equal values may be shown once. After the bases stand the sugars from the 5' end (letter, count) and the backbone: PS all phosphorothioate, else s phosphorothioate and o phosphodiester by linkage. Methylation of C is not given here. e = 2'-O-(2-methoxyethyl) (MOE); k = constrained ethyl (cEt); d = 2'-deoxy (DNA)

Biological target: IRF4
Details: ASO

Sequence | target mRNA inhibition (SK-MEL-28, 4 µM) | target mRNA inhibition (MM.1R, 1 µM) | also measured
TTCAGTTGTAAATGAG (sugars k3 d10 k3, PS) | 56% | – | –
GAAGCACTGGCATCGA (sugars k3 d10 k3, PS) | 44% | – | –
CTACACTTCCAAGCAA (sugars k3 d10 k3, PS) | -5% | – | –
ACGAACGCGCAAAACC (sugars k3 d10 k3, PS) | 6% | – | –
CCACGAGGCCCCGGAG (sugars k3 d10 k3, PS) | – | 4% | –
AGTACAAACTAAATTC (sugars k3 d10 k3, PS) | 24% | – | –
ATGGATAGTTTCTCAT (sugars k3 d10 k3, PS) | 25% | – | –
CAGTTGTAAATGAGTC (sugars kddddddddddkekek, PS) | – | 65% | target mRNA inhibition (H929, 0.00067 µM): 16%; target mRNA inhibition (H929, 0.002 µM): 25%; target mRNA inhibition (H929, 0.00667 µM): 52%; target mRNA inhibition (H929, 0.02 µM): 68%; target mRNA inhibition (H929, 0.04 µM): 38%; target mRNA inhibition (KMS11, 0.2 µM): 77% and 89%; target mRNA inhibition (MM.1R, 0.074 µM): 18%; target mRNA inhibition (MM.1R, 0.222 µM): 44%; target mRNA inhibition (MM.1R, 0.666 µM): 63%; target mRNA inhibition (MM.1R, 2 µM): 85%
AACACGGGAATTTCCA (sugars k3 d10 k3, PS) | 73% | – | –
CAAGAACTGCAGCTCC (sugars k3 d10 k3, PS) | 47% | – | –
TGGTACACCTCTTCAC (sugars k3 d10 k3, PS) | 32% | – | –
TCTTTATGCGAAGAAT (sugars k3 d10 k3, PS) | 42% | – | –
GTAAAACATAACTTAC (sugars k3 d10 k3, PS) | 8% | – | –
GTTAACAATATGCTTC (sugars k3 d10 k3, PS) | 25% | – | –
AATGTGTATTACTCTT (sugars k3 d10 k3, PS) | – | 53% and 41% | –
ATATAACGGTGTTTCA (sugars k3 d10 k3, PS) | 58% | – | –
AACAATCCTGTACACT (sugars k3 d10 k3, PS) | 22% | – | –
TTATCTTCCCTTAGGA (sugars k3 d10 k3, PS) | 28% | – | –
CTATAGTGTTCCAGGA (sugars kddddddddddkekek, PS) | – | 34% | –
GCGAAGAATTTTAGCA (sugars k3 d10 k3, PS) | 12% | – | –
CTCCACTACCATATTG (sugars k3 d10 k3, PS) | 1% | – | –
GCAAACGACAAGTGGC (sugars k3 d10 k3, PS) | – | -15% | –
CTCCTATGCTGAACCC (sugars k3 d10 k3, PS) | – | 9% | –
TGCCCAATACATATCC (sugars k3 d10 k3, PS) | 59% | – | –

Sequence | target mRNA inhibition (SK-MEL-28, 4 µM) | target mRNA inhibition (MM.1R, 1 µM) | also measured
GAGGGAGCTCATTTTG (sugars k3 d10 k3, PS) | 24% | – | –
AACGAGTTGACACAGG (sugars k3 d10 k3, PS) | 55% | – | –
TACCTACAAGCAGTCA (sugars k3 d10 k3, PS) | 56% | – | –
TCACTAAGCTTGATAA (sugars k3 d10 k3, PS) | 37% | – | –
ACTAACTGGCTTCCAG (sugars k3 d10 k3, PS) | 31% | – | –
AATCACCCTGGTCACC (sugars k3 d10 k3, PS) | – | 1% | –
ACTTTGTACGGGTCTG (sugars k3 d10 k3, PS) | 39% | – | –
AAGTGTCTAAAGTCCC (sugars kddddddddddkekek, PS) | – | -1% | –
GGAACTCCCGAGGGCA (sugars k3 d10 k3, PS) | – | 13% | –
TGCCTTACCTGACAAG (sugars k3 d10 k3, PS) | – | 4% | –
AGGAGAGGCTGAGATA (sugars k3 d10 k3, PS) | 21% | – | –
TCCTGGCAGTGCTCTC (sugars k3 d10 k3, PS) | 60% | – | –
GTGAGATGCGGAGGTT (sugars k3 d10 k3, PS) | – | 39% | target mRNA inhibition (MM.1R, 0.0625 µM): 14%; target mRNA inhibition (MM.1R, 0.25 µM): 12%; target mRNA inhibition (MM.1R, 4 µM): 66%
CTGTTACCGATGCTTC (sugars kdddddddddkekeke, PS) | – | 2% and 24% | –
CACAAAGCGGGTTCAC (sugars k3 d10 k3, PS) | – | -12% | –
CCCTTCCCGCTCCGAA (sugars k3 d10 k3, PS) | 16% | – | –
GCAAAACCAGTACAGT (sugars k3 d10 k3, PS) | 58% | 11% | target mRNA inhibition (MM.1R, 0.0625 µM): 3%; target mRNA inhibition (MM.1R, 0.074 µM): 17%; target mRNA inhibition (MM.1R, 0.222 µM): 0%; target mRNA inhibition (MM.1R, 0.25 µM): 6%; target mRNA inhibition (MM.1R, 0.666 µM): 4%; target mRNA inhibition (MM.1R, 2 µM): 13%; target mRNA inhibition (MM.1R, 4 µM): 26%
TTTTATATATGACGAC (sugars k3 d10 k3, PS) | 34% | – | –
CAGTTCTAAGCATTGC (sugars k3 d10 k3, PS) | 33% | – | –
GTATACATCACTGCAG (sugars k3 d10 k3, PS) | 44% | – | –
TACAGGCACGGCTTCA (sugars k3 d10 k3, PS) | 58% | – | –
GCTAAAGAACACTGCT (sugars k3 d10 k3, PS) | 3% | – | –
CCTGGGACTCAGGTGG (sugars k3 d10 k3, PS) | 59% | – | target mRNA inhibition (MM.1R, 0.074 µM): 6%; target mRNA inhibition (MM.1R, 0.222 µM): -6%; target mRNA inhibition (MM.1R, 0.666 µM): 0%; target mRNA inhibition (MM.1R, 2 µM): 13%; target mRNA inhibition (SK-MEL-28, 0.185 µM): 9%; target mRNA inhibition (SK-MEL-28, 5 µM): 64%; target mRNA inhibition (SK-MEL-28, 15 µM): 91%
ATCAGTCTCAAAAACG (sugars k3 d10 k3, PS) | 41% | – | –

Sequence | target mRNA inhibition (SK-MEL-28, 4 µM) | target mRNA inhibition (MM.1R, 1 µM) | also measured
CCAACTTATAGCACTC (sugars k3 d10 k3, PS) | – | 14% | –
GCGGACGCACGGAGAG (sugars k3 d10 k3, PS) | – | -9% | –
TCTAAGGCAAGCTGAA (sugars k3 d10 k3, PS) | 21% | – | –
TCTGAATTGTTACTAA (sugars k3 d10 k3, PS) | 35% | – | –
AAGTGTCTAAAGTCCC (sugars kkdddddddddkdkdk, PS) | – | 13% and 21% | –
AACCGGTAGAGTGAGA (sugars k3 d10 k3, PS) | 6% | – | –
ACAGAAGGGCAACAGT (sugars k3 d10 k3, PS) | 43% | – | –
GTGTAATGTAGGGATA (sugars k3 d10 k3, PS) | 64% | – | –
AATGATGGCAGTCTAC (sugars k3 d10 k3, PS) | 33% | – | –
CACTATGCCTGAACTG (sugars k3 d10 k3, PS) | 10% | – | –
TTACGCTTATTTTTCC (sugars k3 d10 k3, PS) | – | 39% | –
TTATCATCCGAAAAGA (sugars k3 d10 k3, PS) | – | 4% | –
TGGCCACAGAGGACTT (sugars k3 d10 k3, PS) | 33% | – | –
ACCAAGCTGGGTTTGC (sugars k3 d10 k3, PS) | 53% | – | –
TCAAGAGGAACTAGTC (sugars k3 d10 k3, PS) | 24% | – | –
TCCTATGGTCAGCCTC (sugars k3 d10 k3, PS) | 48% | – | –
GTAGACCACAGTGAAG (sugars k3 d10 k3, PS) | 29% | – | –
AACAGATAACGAGGTG (sugars k3 d10 k3, PS) | -4% | – | –
AAACCAGTACAGTCCA (sugars k3 d10 k3, PS) | – | -23% | –
CTATAGTGTTCCAGGA (sugars k2 d9 e3 k2, PS) | – | 34% | –
CTGCTTGAGGTTTTCC (sugars kdddddddddkekeke, PS) | – | 20% | –
CAAAATGGTGTGTAAG (sugars k3 d10 k3, PS) | 25% | – | –
CTTGGTTCTCTATAGT (sugars k3 d10 k3, PS) | – | 27% | –
ATAATGTTTCAGTGCT (sugars k3 d10 k3, PS) | 76% | – | –

Sequence | target mRNA inhibition (SK-MEL-28, 4 µM) | target mRNA inhibition (MM.1R, 1 µM) | also measured
TGGCACGAGGAAGCAT (sugars k3 d10 k3, PS) | 46% | – | –
TGCCAAAGAGCCCAAT (sugars k3 d10 k3, PS) | – | -19% | –
GTTTGTGAAGCATCCT (sugars k3 d10 k3, PS) | 65% | – | –
CAAGAGGTGCGAGTAC (sugars k3 d10 k3, PS) | 22% | – | –
ACCAAGAAATGCACCT (sugars k3 d10 k3, PS) | 57% | – | –
ATTCTTAGAATGCATA (sugars k4 d8 k4, PS) | 33% | – | –
GCCAAGGACACCACCT (sugars k3 d10 k3, PS) | -2% | – | –
ATGTGTTCTGGTAAAT (sugars k3 d10 k3, PS) | – | 34% | –
TGGTTCTCTATAGTGT (sugars k3 d10 k3, PS) | 71% | – | –
TAGTATGAGAAACGGC (sugars kkkddddddddkekek, PS) | – | 30% | –
TGATGTGATAGCTGAG (sugars kdddddddddkekeke, PS) | – | 47% | –
GCGGGCACAGCCGTCC (sugars k3 d10 k3, PS) | – | -21% | –
ATACTTAAGCAAGTGG (sugars k3 d10 k3, PS) | 76% | – | –
GCAAAACGCAGAGCCA (sugars k3 d10 k3, PS) | 57% | – | –
CCATATTGGAAACCAG (sugars k3 d10 k3, PS) | – | 10% | –
TCTCACGCAGTGCACC (sugars k3 d10 k3, PS) | 44% | – | –
TGTAGAAGCCCACAAG (sugars k3 d10 k3, PS) | – | -7% | –
TATAGAGCATCACTAT (sugars k3 d10 k3, PS) | 41% | – | –
ACTTACACCCAGAAGT (sugars k3 d10 k3, PS) | -10% | – | –
CTATAGTGTTCCAGGA (sugars kkddddddddddkeke, PS) | – | 36% | –
CTTCCAAGACAGCTTC (sugars k3 d10 k3, PS) | 63% | – | –
AGCTAATGAGAGCTTC (sugars k3 d10 k3, PS) | 17% | – | –
TAATTACTGCTTGAGG (sugars k3 d10 k3, PS) | – | 62% | target mRNA inhibition (MM.1R, 0.074 µM): 9%; target mRNA inhibition (MM.1R, 0.222 µM): 31%; target mRNA inhibition (MM.1R, 0.666 µM): 54%; target mRNA inhibition (MM.1R, 2 µM): 77%
ATTGAGGCATACAGTG (sugars k3 d10 k3, PS) | 30% | – | –
